Results from patent US20240270762A1, “PENICILLIN-BINDING PROTEIN INHIBITORS” (priority 2021, published 2024).
≈ marks a conversion by molar mass, not a printed value.

What was measured:
P. aeruginosa ATCC 27853 = assay: microbe, parasite or virus in culture; assay type: cell-based; settings: Pseudomonas aeruginosa, ATCC27853, read-out: MIC P. aeruginosa ATCC 27853
E. coli AG100 = assay: microbe, parasite or virus in culture; assay type: cell-based; settings: Escherichia coli, AG100, read-out: MIC E. coli AG100
E. coli ATCC 25922 = assay: microbe, parasite or virus in culture; assay type: cell-based; settings: Escherichia coli, ATCC25922, read-out: MIC E. coli 25922
E. coli 901C = assay: microbe, parasite or virus in culture; assay type: cell-based; settings: Escherichia coli, read-out: MIC E. coli 901C
P. aeruginosa ATCC 35151 = assay: microbe, parasite or virus in culture; assay type: cell-based; settings: Pseudomonas aeruginosa, ATCC35151, read-out: MIC P. aeruginosa ATCC 35151
N. gonorrhoeae WHO X = assay: Liquid broth MIC in Fastidious broth; settings: Neisseria gonorrhoeae, read-out: Minimum Inhibitory Concentration (MIC), N. gonorrhoeae WHO X
K. pneumoniae UMM = assay: microbe, parasite or virus in culture; assay type: cell-based; settings: Klebsiella pneumoniae, read-out: MIC K. pneumoniae UMM
N. gonorrhoeae WHO Z = assay: Liquid broth MIC in Fastidious broth; settings: Neisseria gonorrhoeae, read-out: Minimum Inhibitory Concentration (MIC), N. gonorrhoeae WHO Z
[1] = target: T1, PBP2 from Neisseria gonorrhoeae (FA19) (Neisseria gonorrhoeae, UniProt P08149); assay: Bocillin-FL fluorescence polarization competition binding, N. gonorrhoeae PBP2; settings: fluorescence polarization competition binding assay using Bocillin-FL, read-out: N. gonorrhoeae PBP2 Potency
T1 construct: made in house
T1 sequence (P08149 whole entry): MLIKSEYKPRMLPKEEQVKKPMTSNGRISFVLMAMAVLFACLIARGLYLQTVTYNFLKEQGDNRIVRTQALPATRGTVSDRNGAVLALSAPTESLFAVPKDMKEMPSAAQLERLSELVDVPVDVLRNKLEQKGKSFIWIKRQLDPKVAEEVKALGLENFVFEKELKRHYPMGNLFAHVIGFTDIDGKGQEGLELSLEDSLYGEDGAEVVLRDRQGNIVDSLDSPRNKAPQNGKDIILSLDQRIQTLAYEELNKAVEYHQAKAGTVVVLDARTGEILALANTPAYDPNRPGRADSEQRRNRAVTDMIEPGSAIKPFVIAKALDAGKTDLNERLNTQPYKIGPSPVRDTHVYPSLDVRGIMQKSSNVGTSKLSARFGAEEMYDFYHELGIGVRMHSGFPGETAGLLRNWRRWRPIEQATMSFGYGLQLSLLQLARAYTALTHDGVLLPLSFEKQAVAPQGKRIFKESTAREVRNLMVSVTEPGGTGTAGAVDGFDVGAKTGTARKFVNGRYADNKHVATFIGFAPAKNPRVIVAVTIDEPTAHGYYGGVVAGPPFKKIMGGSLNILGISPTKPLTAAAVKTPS
From the text: To determine the ability of boronic acid-based test PBP inhibitors to bind Penicillin Binding Proteins (PBPs), Bocillin-FL (fluorescently-labeled penicillin V; ThermoFisher Scientific) was used in a fluorescence polarization (FP) competition binding assay to assess inhibitor binding to PBP3 from Escherichia coli (K-12), PBP3 from Pseudomonas aeruginosa (PAO1), PBP1a and PBP3 from Acinetobacter baumannii (ATCC 19606), and PBP2 from Neisseria gonorrhoeae (FA19). PBPs were cloned and purified as described previously (E. coli PBP3, King, D. T, et al., ACS Infectious Diseases 2015, 1, 175-184; P. aeruginosa PBP3, Han et. al., PNAS 2010, 107 (51), 22002-22007; A. baumannii PBPs, Penwell et. al., Antimicrob. Agents Chemother. 2015, 59 (3), 1680-1689; N. gonorrhoeae PBP2, Singh et. al., J. Biol. Chem. 2019, 294 (38), 14020-14032). To establish assay conditions for competition binding, enzyme titration/saturation binding experiments were initially performed. Bocillin-FL was prepared at 0.2 μM in a buffer comprised of 50 mM Hepes (pH 8.0), 300 mM NaCl and 10% (v/v) glycerol for reactions with E. coli, P. aeruginosa and N. gonorrhoeae PBPs, and 25 mM Tris (pH 8.0), 200 mM NaCl, 10% (v/v) glycerol and 0.005% (v/v) Tween 20 for reactions with A. baumannii PBPs. Saturation binding was performed by mixing 40 μl of PBP solutions ranging in concentrations from 0-24 μM with 40 μl of the 0.2 μM Bocillin-FL solution, in individual wells of a black 384-well microplate. FP was measured immediately upon mixing (Excitation, 490 nm; Emission, 520 nm; g-factor, 0.96), using a Cytation3 (BioTek) microplate reader and measured continuously for up to 120 minutes. […] The competition binding assay (80 μl final volume) was validated using beta-lactams and PBPs at final concentrations of: 1.5 μM for E. coli PBP3; 0.75 μM for P. aeruginosa PBP3; 1 μM for A. baumannii PBP1a; 0.2 μM for A. baumannii PBP3; and 0.25 μM for N. gonorrhoeae PBP2. Bocillin-FL was at 0.1 μM (0.05 μM with A. baumannii PBP1a) and beta-lactam concentrations ranged from 0-1,000 μM. E. coli PBP3 was incubated with increasing concentrations of ampicillin in a black 384-well microplate (Corning) for 30 minutes. P. aeruginosa PBP3 was incubated for 15 minutes with aztreonam, whereas A. baumannii PBP1a and PBP3 were incubated for 15 minutes with meropenem, and then Bocillin-FL was added followed immediately by the FP measurement for up to 60 minutes. […] The beta-lactam potency was reported as the concentration of beta-lactam required to reduce the amount of PBP bound-Bocillin-FL by 50% (EC50). […] Binding assays for boronic acid PBP inhibitors were performed in an identical fashion for the respective PBPs.

[2] = tested on: P. aeruginosa (ΔmexAB-oprM); assay: Broth microdilution MIC in CAMHB; assay type: cell-based; settings: Pseudomonas aeruginosa; read-out: MIC P. aeruginosa ΔmexAB-oprM
A. baumannii ATCC 19606 = assay: microbe, parasite or virus in culture; assay type: cell-based; settings: Acinetobacter baumannii, ATCC19606, read-out: MIC, A. baumannii ATCC 19606
K. pneumoniae SI-117 = assay: microbe, parasite or virus in culture; assay type: cell-based; settings: Klebsiella pneumoniae, SI117, read-out: MIC K. pneumoniae SI-117
N. gonorrhoeae WHO M = assay: Liquid broth MIC in Fastidious broth; settings: Neisseria gonorrhoeae, read-out: Minimum Inhibitory Concentration (MIC), N. gonorrhoeae WHO M
N. gonorrhoeae MS11 = assay: Liquid broth MIC in Fastidious broth; settings: Neisseria gonorrhoeae, MS11, read-out: Minimum Inhibitory Concentration (MIC), N. gonorrhoeae MS11
E. coli D22 = assay: microbe, parasite or virus in culture; assay type: cell-based; settings: Escherichia coli, D22, read-out: MIC E. coli D22
K. pneumoniae 848844 = assay: microbe, parasite or virus in culture; assay type: cell-based; settings: Klebsiella pneumoniae, 848844, read-out: MIC K. pneumoniae 848844
N. gonorrhoeae WHO K = assay: Liquid broth MIC in Fastidious broth; settings: Neisseria gonorrhoeae, read-out: Minimum Inhibitory Concentration (MIC), N. gonorrhoeae WHO K
N. gonorrhoeae FA1090 = assay: Liquid broth MIC in Fastidious broth; settings: Neisseria gonorrhoeae, FA1090, read-out: Minimum Inhibitory Concentration (MIC), N. gonorrhoeae FA 1090

SMILES	MIC (P. aeruginosa ATCC 27853) [µg/mL]	MIC (E. coli AG100) [µg/mL]	MIC (E. coli ATCC 25922) [µg/mL]	MIC (E. coli 901C) [µg/mL]	MIC (P. aeruginosa ATCC 35151) [µg/mL]	MIC (N. gonorrhoeae WHO X) [µg/mL]	MIC (K. pneumoniae UMM) [µg/mL]	MIC (N. gonorrhoeae WHO Z) [µg/mL]	EC50 [1] [µM]	MIC [2] [µg/mL]	MIC (A. baumannii ATCC 19606) [µg/mL]	MIC (K. pneumoniae SI-117) [µg/mL]	MIC (N. gonorrhoeae WHO M) [µg/mL]	MIC (N. gonorrhoeae MS11) [µg/mL]	MIC (E. coli D22) [µg/mL]	MIC (K. pneumoniae 848844) [µg/mL]	MIC (N. gonorrhoeae WHO K) [µg/mL]	MIC (N. gonorrhoeae FA1090) [µg/mL]
CS(=O)(=O)N1CCN(C(=O)NC(C(=O)N[C@H]2Cc3cccc(C(=O)O)c3OB2O)c2ccc(P(=O)(O)O)c(F)c2)C1=O (stereo partly drawn) [Example 12, (3R)-3-(2-(3-fluoro-4-phosphonophenyl)-2-(3-(methylsulfonyl)-2-oxoimidazolidine-1-carboxamido)acetamido)-2-hydroxy-3,4-dihydro-2H-benzo[e][1,2]oxaborinine-8-carboxylic acid]	> 128	8 to 16 (≈ 12.7 to 25.5 µM)	32 to 64 (≈ 50.9 to 102 µM)	< 1	8 to 16 (≈ 12.7 to 25.5 µM)	< 1	> 128	< 1	< 10	32 to 64 (≈ 50.9 to 102 µM)	32 to 64 (≈ 50.9 to 102 µM)	> 128	< 1	< 1	2 to 4 (≈ 3.18 to 6.37 µM)	> 128	< 1	< 1
CS(=O)(=O)N1CCC[C@@H]1C(=O)N[C@H](C(=O)N[C@H]1Cc2cccc(C(=O)O)c2OB1O)c1ccc(P(=O)(O)O)cc1 [Example 34, (R)-2-hydroxy-3-((S)-2-((R)-1-(methylsulfonyl)pyrrolidine-2-carboxamido)-2-(4-phosphonophenyl)acetamido)-3,4-dihydro-2H-benzo[e][1,2]oxaborinine-8-carboxylic acid]	> 128	> 128	> 128	8 to 16 (≈ 13.4 to 26.9 µM)	8 to 16 (≈ 13.4 to 26.9 µM)	16 to 32 (≈ 26.9 to 53.8 µM)	> 128	16 to 32 (≈ 26.9 to 53.8 µM)	50 to 250	> 128	> 128	> 128	4 to 8 (≈ 6.72 to 13.4 µM)	16 to 32 (≈ 26.9 to 53.8 µM)	32 to 64 (≈ 53.8 to 108 µM)	> 128	16 to 32 (≈ 26.9 to 53.8 µM)	4 to 8 (≈ 6.72 to 13.4 µM)
N[C@@H](C(=O)N[C@H]1Cc2cccc(C(=O)O)c2OB1O)c1ccc(P(=O)(O)O)cc1 (single isomer, unassigned) [Example 171]	> 128	> 128	> 128	> 128	> 128	> 64	> 128	> 64	10 to 50	> 128	> 128	> 128	> 64	> 64	> 128	> 128	> 64	> 64
O=C(O)c1c(F)ccc2c1OB(O)[C@@H](NC(=O)C(NC(=O)N1CCN(Cc3ccc(O)c(O)c3Cl)C(=O)C1=O)c1ccc(P(=O)(O)O)cc1)C2 (stereo partly drawn) [Example 8, (3R)-3-(2-(4-(2-chloro-3,4-dihydroxybenzyl)-2,3-dioxopiperazine-1-carboxamido)-2-(4-phosphonophenyl)acetamido)-7-fluoro-2-hydroxy-3,4-dihydro-2H-benzo[e][1,2]oxaborinine-8-carboxylic acid]	< 1	–	2 to 4 (≈ 2.72 to 5.44 µM)	< 1	< 1	4 to 8 (≈ 5.44 to 10.9 µM)	2 to 4 (≈ 2.72 to 5.44 µM)	< 1	< 10	< 1	< 1	8 to 16 (≈ 10.9 to 21.8 µM)	< 1	< 1	< 1	> 128	1 to 2 (≈ 1.36 to 2.72 µM)	< 1
O=C(O)c1c(F)ccc2c1OB(O)[C@@H](NC(=O)C(NC(=O)N1CCN(Cc3ccc(O)c(O)c3Cl)C1=O)c1ccc(P(=O)(O)O)cc1)C2 (stereo partly drawn) [Example 46, (3R)-3-(2-(3-(2-chloro-3,4-dihydroxybenzyl)-2-oxoimidazolidine-1-carboxamido)-2-(4-phosphonophenyl)acetamido)-7-fluoro-2-hydroxy-3,4-dihydro-2H-benzo[e][1,2]oxaborinine-8-carboxylic acid]	–	–	–	–	–	1 to 2 (≈ 1.41 to 2.83 µM)	–	< 1	< 10	–	–	–	< 1	< 1	–	–	1 to 2 (≈ 1.41 to 2.83 µM)	< 1
O=C(O)c1cccc2c1OB(O)[C@@H](NC(=O)C(NC(=O)N1CCN(Cc3ccc(O)c(O)c3Cl)C(=O)C1=O)c1ccc(P(=O)(O)O)cc1)C2 (stereo partly drawn) [Example 24, (3R)-3-(2-(4-(2-chloro-3,4-dihydroxybenzyl)-2,3-dioxopiperazine-1-carboxamido)-2-(4-phosphonophenyl)acetamido)-2-hydroxy-3,4-dihydro-2H-benzo[e][1,2]oxaborinine-8-carboxylic acid]	–	–	–	–	–	16 to 32 (≈ 22.3 to 44.6 µM)	–	1 to 2 (≈ 1.4 to 2.79 µM)	< 10	–	–	–	< 1	< 1	–	–	4 to 8 (≈ 5.58 to 11.2 µM)	< 1
O=C(O)c1c(F)ccc2c1OB(O)[C@@H](NC(=O)C(NC(=O)N1CCN(Cc3ccc(O)c(O)c3Cl)C(=O)C1=O)c1ccc(P(=O)(O)O)c(F)c1)C2 (stereo partly drawn) [Example 23, (3R)-3-(2-(4-(2-chloro-3,4-dihydroxybenzyl)-2,3-dioxopiperazine-1-carboxamido)-2-(3-fluoro-4-phosphonophenyl)acetamido)-7-fluoro-2-hydroxy-3,4-dihydro-2H-benzo[e][1,2]oxaborinine-8-carboxylic acid]	–	–	–	–	–	1 to 2 (≈ 1.33 to 2.66 µM)	–	< 1	< 10	–	–	–	< 1	< 1	–	–	< 1	< 1
O=C(O)c1c(F)ccc2c1OB(O)[C@@H](NC(=O)C(NC(=O)N1CCN(Cc3cc(F)c(O)c(O)c3Cl)C(=O)C1=O)c1ccc(P(=O)(O)O)cc1)C2 (stereo partly drawn) [Example 45, (3R)-3-(2-(4-(2-chloro-5-fluoro-3,4-dihydroxybenzyl)-2,3-dioxopiperazine-1-carboxamido)-2-(4-phosphonophenyl)acetamido)-7-fluoro-2-hydroxy-3,4-dihydro-2H-benzo[e][1,2]oxaborinine-8-carboxylic acid]	–	–	–	–	–	4 to 8 (≈ 5.31 to 10.6 µM)	–	1 to 2 (≈ 1.33 to 2.66 µM)	< 10	–	–	–	< 1	< 1	–	–	1 to 2 (≈ 1.33 to 2.66 µM)	< 1
